This note sets out measurements from US8124788B2, “Spirocyclic cyclohexane compounds with analgesic activity” (Gruenenthal GmbH, priority 2006, dated 2012).

Structures can show the parent of a compound that is named as a salt.

Series [1] concerns the target T1, Serotonin reuptake (Rattus norvegicus, UniProt P31652).
T1 construct: synaptosomes are freshly isolated from areas of the rat brain; from tissue
Briefly: Inhibition of serotonin (5HT) reuptake in rat brain synaptosomes. The format is biochemical. The procedure: (§1) In order to be able to carry out these in vitro studies, synaptosomes are freshly isolated from areas of the rat brain. In each case a so-called “P2” fraction prepared in accordance with the instruction of Gray and Whittaker (E. G. Gray and V. P. Whittaker (1962) J. Anat. 76, 79-88) is prepared. For the NA uptake, these vesicular particles are isolated from the hypothalamus of male rat brains.
(§2) A detailed description of the method can be found in the literature (M. Ch. Frink, H.-H. Hennies, W. Englberger, M. Haurand and B. Wilffert (1996) Arzneim.-Forsch./Drug Res. 46 (III), 11, 1029-1036).

Series [2] concerns phenylquinone-induced writhing in mice. Kind of series: Phenylquinone writhing. The format is in vivo. To be noted: 10 mg/kg intravenously, male NMRI mice. On the procedure:
The analgesic activity was investigated in the phenylquinone-induced writhing in mice (modified in accordance with I. C. Hendershot und J. Forsaith (1959) J. Pharmacol. Exp. Ther. 125, 237-240), Male NMRI mice weighing from 25 to 30 g were used for this. Groups of 10 animals per substance dose received 0.3 ml/mouse of a 0.02% strength aqueous solution of phenylquinone (phenylbenzoquinone, Sigma, Deisenhofen; preparation of the solution with the addition of 5% ethanol and storage in a water bath at 45° C.) administered intraperitoneally 10 minutes after intravenous administration of the test substances. The animals were placed individually in observation cages. The number of pain-induced stretching movements (so-called writhing reactions=straightening of the body with stretching of the rear extremities) was counted by means of a push-button counter 5 to 20 minutes after the administration of phenylquinone. Animals which receive only 5% strength Cremophor solution were also run as a control. All the substances were tested in the standard dosage of 10 mg/kg. The percentage inhibition (% inhibition) of the writhing reaction by a substance was calculated according to the following formula: […]

Series [3] addresses T2, human μ opiate receptor (Homo sapiens, UniProt P35372).
T2 construct: purchased PerkinElmer Life Sciences, Zaventem, Belgium RB-HOM; host or cells: CHO-K1 cells (recombinant expression)
Kind of series: Affinity for the human μ opiate receptor ([3H]-naloxone displacement, CHO-K1 membrane preparation, SPA). The format is binding. The conditions noted are these: for inhibition at 1 µM / μ opioid receptor [1 μM], % inhibition: 1 μM test substance, displacement of [3H]-naloxone; for inhibition at 1 µM: read-out: μ opioid receptor [1 μM], % inhibition; for Ki: Cheng-Prusoff conversion from IC50, read-out: μ opioid receptor, Ki. The method, boiled down: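 CHO-K1 membranes expressing human μ receptor (15-40 μg protein/250 μl) were incubated 90 min at room temperature with 1 nmol/l [³H]-naloxone and WGA-SPA beads in 50 mmol/l Tris-HCl with 0.06% BSA; 100 μmol/l naloxone defined nonspecific binding. Percent displacement measured at 1 μmol/l; IC50 converted to Ki via Cheng-Prusoff.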

Series [4] deals with T3, Noradrenaline reuptake (Rattus norvegicus, UniProt Q63380).
T3 construct: synaptosomes are freshly isolated from areas of the rat brain; from tissue; host or cells: P2 synaptosome fraction from the hypothalamus of male rat brains
T3 sequence (Q63380 1-617): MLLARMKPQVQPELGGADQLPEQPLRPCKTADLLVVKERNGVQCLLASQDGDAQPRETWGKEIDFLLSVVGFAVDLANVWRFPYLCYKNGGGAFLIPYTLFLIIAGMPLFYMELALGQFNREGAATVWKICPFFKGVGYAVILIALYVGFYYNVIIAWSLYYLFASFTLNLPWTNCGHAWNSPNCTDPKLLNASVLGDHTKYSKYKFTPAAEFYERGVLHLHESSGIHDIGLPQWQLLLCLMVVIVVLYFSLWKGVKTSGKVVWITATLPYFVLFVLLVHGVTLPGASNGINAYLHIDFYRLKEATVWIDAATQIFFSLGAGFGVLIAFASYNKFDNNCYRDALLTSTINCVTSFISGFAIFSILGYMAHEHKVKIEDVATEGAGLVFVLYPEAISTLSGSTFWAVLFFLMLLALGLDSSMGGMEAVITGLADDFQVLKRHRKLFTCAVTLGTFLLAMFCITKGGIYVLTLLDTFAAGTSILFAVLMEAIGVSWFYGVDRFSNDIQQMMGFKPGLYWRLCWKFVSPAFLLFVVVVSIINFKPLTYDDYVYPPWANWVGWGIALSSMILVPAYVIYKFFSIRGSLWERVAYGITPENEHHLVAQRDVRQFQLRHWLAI
Kind of series: Inhibition of noradrenaline (NA) reuptake in rat brain synaptosomes. It is filed as biochemical. To be noted: synaptosomes from rat hypothalamus. On the procedure: as §1, §2

T2 sequence (P35372 whole entry): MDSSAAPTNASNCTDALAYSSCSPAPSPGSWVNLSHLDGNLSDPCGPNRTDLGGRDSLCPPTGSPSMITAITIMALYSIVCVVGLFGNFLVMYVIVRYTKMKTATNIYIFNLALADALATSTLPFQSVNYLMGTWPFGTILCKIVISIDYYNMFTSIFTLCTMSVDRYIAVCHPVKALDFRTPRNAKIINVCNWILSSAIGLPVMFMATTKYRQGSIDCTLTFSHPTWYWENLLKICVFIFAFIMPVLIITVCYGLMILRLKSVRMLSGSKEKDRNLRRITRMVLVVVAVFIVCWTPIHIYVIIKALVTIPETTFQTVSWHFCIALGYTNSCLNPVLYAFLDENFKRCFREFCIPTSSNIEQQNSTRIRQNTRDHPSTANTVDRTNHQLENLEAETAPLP
T1 sequence (P31652 whole entry): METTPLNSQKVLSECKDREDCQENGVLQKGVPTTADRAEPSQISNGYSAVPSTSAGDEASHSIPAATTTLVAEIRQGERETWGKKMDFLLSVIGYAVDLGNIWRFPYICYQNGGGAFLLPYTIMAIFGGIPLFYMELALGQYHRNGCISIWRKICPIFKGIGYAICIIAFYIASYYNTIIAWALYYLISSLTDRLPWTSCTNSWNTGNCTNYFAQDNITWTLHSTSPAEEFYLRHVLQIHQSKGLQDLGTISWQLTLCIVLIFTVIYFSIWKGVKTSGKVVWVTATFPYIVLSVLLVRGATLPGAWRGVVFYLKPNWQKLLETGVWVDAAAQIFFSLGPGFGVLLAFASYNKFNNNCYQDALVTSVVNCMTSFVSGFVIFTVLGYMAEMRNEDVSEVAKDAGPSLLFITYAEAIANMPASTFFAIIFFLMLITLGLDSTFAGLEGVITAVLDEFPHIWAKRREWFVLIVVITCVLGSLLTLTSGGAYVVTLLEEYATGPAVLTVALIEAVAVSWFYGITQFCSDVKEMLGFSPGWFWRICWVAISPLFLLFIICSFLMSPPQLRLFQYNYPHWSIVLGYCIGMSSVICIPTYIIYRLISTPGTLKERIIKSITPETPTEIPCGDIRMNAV

Molecule `CN(C)C(CCc1ccccc1)C1CCC2(CC1)NCCc1c2[nH]c2ccccc12` (stereo not shown) (as salt: citrate) [Compound 20, 1,1-[3-(Dimethylamino-(phenylethyl)-methyl)-pentamethylene]-3,4-dihydro-1H-2,9-diazafluorene Citrate] gave a melting point of 130 to 135 °C.
For `CN(C)C(c1ccc(Cl)cc1)C1CCC2(CC1)OCCc1c2[nH]c2ccccc12` (stereo not shown) [Compound 30, 1,1-[3-(Dimethylamino-(4-chlorophenyl)-methyl)-pentamethylene]-1,3,4,9-tetrahydro-pyrano[3,4-b]indole], the inhibition at 10 µM in series [1] is 56%. Besides, the “% inhibition of the writhing reaction (dosage in mg/kg intravenously)” value (from here on “% inhibition of the writhing reaction”) in series [2] is on record as 45 (10) %. In series [3], the inhibition at 1 µM came out at 84% and the Ki is 170 nM.
For the molecule `CN(C)C(c1cccc(F)c1)C1CCC2(CC1)OCCc1c2[nH]c2ccccc12` (stereo not shown) [Compound 26, 1,1-[3-(Dimethylamino-(3-fluorophenyl)-methyl)-pentamethylene]-1,3,4,9-tetrahydro-pyrano[3,4-b]indole Citrate], 10 µM produced 59% inhibition in series [1]. The molecule also had an inhibition at 10 µM in series [4] of 49%. In series [3], the inhibition at 1 µM was found to be 94% and the Ki worked out at 33 nM.
Consider `CN(C)C(c1ccccc1)C1CCC2(CC1)NCCc1c2[nH]c2ccccc12` (stereo not shown) [Compound 19, 1,1-[3-(Dimethylamino-phenylmethyl)-pentamethylene]-3,4-dihydro-1H-2,9-diazafluorene], for which the melting point fell in the range of 182 to 184 °C. This molecule came in with an inhibition at 10 µM in series [1] of 91%. In series [4], this molecule returned an inhibition at 10 µM of 65%. In series [3], the inhibition at 1 µM is 81% and the Ki was found to be 180 nM.
`CN(C)C(CCc1ccccc1)C1CCC2(CC1)NCCc1c2[nH]c2ccccc12` (stereo not shown) [Compound 20, 1,1-[3-(Dimethylamino-(phenylethyl)-methyl)-pentamethylene]-3,4-dihydro-1H-2,9-diazafluorene Citrate] showed an inhibition at 10 µM in series [1] of 84%. For the same molecule, the “% inhibition of the writhing reaction” value in series [2] is 45 (10) %. Further, the inhibition at 10 µM in series [4] was found to be 91%. Moreover, in series [3], the inhibition at 1 µM amounted to 97% and the Ki came to 34 nM.
Take `CN(C)C(c1ccc(F)cc1)C1CCC2(CC1)NCCc1c2[nH]c2ccccc12` (stereo not shown) [Compound 17, 1,1-[3-(Dimethylamino-(4-fluorophenyl)methyl)-pentamethylene]-3,4-dihydro-1H-2,9-diazafluorene]: the “Serotonin reuptake, % inhibition [10 μM]” value in series [1] came out at 83%. Also, in series [2], the “% inhibition of the writhing reaction” value was 52 (10) %. In addition, the “μ opioid receptor [1 μM], % inhibition” value in series [3] was 46%.
`CN(C)C(CCc1ccccc1)C1CCC2(CC1)OCCc1c2[nH]c2ccccc12` (stereo not shown) [Compound 28, 1,1-[3-(Dimethylamino-(phenylethyl)-methyl)-pentamethylene]-1,3,4,9-tetrahydropyrano[3,4-b]indole] showed an inhibition at 10 µM in series [1] of 57%. The same molecule returned an inhibition at 10 µM in series [4] of 52%. Further, in series [3], the inhibition at 1 µM worked out at 92% and the Ki amounted to 110 nM.
With `CN(C)C(c1cccs1)C1CCC2(CC1)NCCc1c2[nH]c2ccccc12` (stereo not shown) [Compound 21, 1,1-[3-(Dimethylamino-(thiophen-2-yl)-methyl)-pentamethylene]-3,4-dihydro-1H-2,9-diazafluorene], in series [1], the “Serotonin reuptake, % inhibition [10 μM]” value was determined as 72%. In series [4], the “Noradrenaline reuptake, % inhibition [10 μM]” value is listed as 50%. Moreover, the “μ opioid receptor [1 μM], % inhibition” value in series [3] was 62%.
As to `CC1Cc2c([nH]c3ccc(F)cc23)C2(CCC(C(c3ccccc3)N(C)C)CC2)O1` (stereo not shown) [Compound 53, 6-Fluoro-3-methyl-1,1-[3-(dimethylamino-(phenyl)-methyl) -pentamethylene]-1,3,4,9-tetrahydropyrano[3,4-b]indole], the inhibition at 10 µM in series [1] was 60%; in series [4] it was 47%. In addition, the inhibition at 1 µM in series [3] worked out at 97%. The Ki in series [3] came to 82 nM.
The corresponding values for `CN(C)C(c1ccc(F)cc1)C1CCC2(CC1)OCCc1c2[nH]c2ccc(F)cc12` (stereo not shown) [Compound 35, 6-Fluoro-1,1-[3-(dimethylamino-(4-fluorophenyl)-methyl) -pentamethylene]-1,3,4,9-tetrahydropyrano[3,4-b]indole] are 55%, 50%, 98% and 67 nM.
In the case of `CN(C)C(c1cccc(F)c1)C1CCC2(CC1)NCCc1c2[nH]c2ccccc12` (stereo not shown) [Compound 18, 1,1-[3-(Dimethylamino-(3-fluorophenyl)methyl)-pentamethylene]-3,4-dihydro-1H-2,9-diazafluorene], the melting point was in the range of 226 to 229 °C. The same molecule yielded an inhibition at 10 µM in series [1] of 64%. In series [4], this molecule displayed an inhibition at 10 µM of 58%. Moreover, in series [3], the inhibition at 1 µM came out at 74% and the Ki was found to be 260 nM.
Take `Cc1ccc2[nH]c3c(c2c1)CC(C)OC31CCC(C(c2ccccc2)N(C)C)CC1` (stereo not shown) (as salt: citrate) [Compound 42, 3,6-Dimethyl-1,1-[3-(dimethylamino-(phenyl)-methyl)-pentamethylene]-1,3,4,9-tetrahydropyrano[3,4-b]indole Citrate]: the melting point was in the range of 245 to 250 °C.
In the case of `CN(C)C(c1ccccc1)C1CCC2(CC1)OCCc1c2[nH]c2ccccc12` (stereo not shown) [Compound 27, 1,1-[3-(Dimethylamino-(phenyl)-methyl)-pentamethylene]-1,3,4,9-tetrahydropyrano[3,4-b]indole Citrate], 10 µM produced 73% inhibition in series [1]. Also, the “% inhibition of the writhing reaction” value in series [2] was 53 (10) %. The molecule further displayed an inhibition at 10 µM in series [4] of 64%. Moreover, in series [3], the inhibition at 1 µM amounted to 99% and the Ki is 26 nM.
As to `CN(C)C(c1cccs1)C1CCC2(CC1)OCCc1c2[nH]c2ccccc12` (stereo not shown) [Compound 29, 1,1-[3-(Dimethylamino-(thiophen-2-yl)-methyl)-pentamethylene]-1,3,4,9-tetrahydro-pyrano[3,4-b]indole], 10 µM produced 45% inhibition in series [1]. For the same molecule, the “% inhibition of the writhing reaction” value in series [2] is 73 (10) %. In series [3], the inhibition at 1 µM was found to be 99% and the Ki was found to be 15 nM.
For the molecule `Cc1ccc2[nH]c3c(c2c1)CC(C)OC31CCC(C(c2cccc(F)c2)N(C)C)CC1` (stereo not shown) [Compound 41, 3,6-Dimethyl-1,1-[3-(dimethylamino-(3-fluorophenyl)-methyl) -pentamethylene]-1,3,4,9-tetrahydropyrano[3,4-b]indole], in series [2], the “% inhibition of the writhing reaction” value was 40 (10) %. In series [3], the inhibition at 1 µM came to 88% and the Ki was determined as 300 nM.
Consider `Cc1ccc2[nH]c3c(c2c1)CC(C)OC31CCC(C(c2ccc(Cl)cc2)N(C)C)CC1` (stereo not shown) [Compound 44, 3,6-Dimethyl-1,1-[3-(dimethylamino-(4-chlorophenyl)-methyl) -pentamethylene]-1,3,4,9-tetrahydropyrano[3,4-b]indole], for which the “% inhibition of the writhing reaction” value in series [2] is 48 (10) %. For the same molecule, in series [3], the inhibition at 1 µM worked out at 72% and the Ki worked out at 490 nM.
